pIC50: −log10 of the molar value. Values after ≈ are worked out from the molar mass of the structure shown. Counter-ions that a name gives are not always drawn. Like-named read-outs stand apart in the source and are kept apart here.
Legend:
[1] = system: GC3 human colon carcinoma cells; assay: GC3 human colon carcinoma screen (MTT); assay type: cell-based
Experimental: Selected wells of a 96 well plate were seeded with GC3 human colon carcinoma cells ([…] cells in 100 μl assay medium/well) twenty four hours prior to test compound addition. Cell free assay medium was added to other select wells of the 96 well plate.
The test compound was stored in an amber bottle prior to testing. Fresh dimethylsulfoxide stock solution (200 μg/ml) was prepared immediately prior to preparation of test sample dilutions in phosphate-buffered saline (PBS). A dilution of 1:20 dimethylsulfoxide solution in PBS was prepared such that the final concentration was 10 ug/ml. Serial 1:3 dilutions using PBS (0.5 ml previous sample of 1 ml PBS) were prepared.
A 10 ul sample of each dilution of test compound was added in triplicate to wells of GC3 plates. The plates were incubated for 72 hours at about 37° C. A 10 μl sample of stock 3-[4,5-[…]]-2,5-diphenyltetrazolium bromide salt (“MTT” 5 mg/ml in PBS) was added to each well. The plates were incubated for about an hour at 37°. The plates were centrifuged, media was decanted from the wells and 100 μl acid-isopropanol (0.04 N HCl in isopropanol) was added to each well. The plate was read within one hour using a test wavelength of 570 nm (SpectraMax reader).

[2] = Solubility in excipient / parenteral vehicles; assay type: physicochemical; conditions: for solubility: Comparative solubility
[3] = Aqueous solubility and stability at pH 4-8; assay type: physicochemical
Experimental: A comparison of stability characteristics between 1 and 12 in aqueous Ph ranging from 4-8 was determined at room temperature for 6 hours.

[4] = Stability in parenteral formulation; assay type: physicochemical; conditions: formulation 6 of Table 4, up to 3 weeks, preliminary
[5] = system: Aortic smooth muscle (A-10) cells; assay: Effects on the cytoskeleton (immunofluorescence); assay type: cell-based, rat; conditions: 2 μM, 24 hours
Experimental: (§1) A-10 cells are grown to near-confluency on glass coverslips in BME/10% FBS. Compounds in PBS are added to the indicated final concentrations and cells are incubated for an additional 24 hours. For the staining of microtubules and intermediate filaments, the cells are fixed with cold methanol and incubated with PBS containing 10% calf serum to block nonspecific binding sites. Cells are then incubated at 37° C. for 60 min. With either monoclonal anti-β-tubulin or with monoclonal anti-vimentin at dilutions recommended by the manufacturer. Bound primary antibodies are subsequently visualized by a 45 minute incubation with fluorescein-conjugated rabbit antimouse IgG. The coverslips are mounted on microscope slides and the fluorescence patterns are examined and photographed using a Zeiss Photomicroscope Ill equipped with epifluorescence optics for fluorescein. […] PBS containing 100 nM TRITC-phalloidin is then added and the mixture is allowed to incubate for 45 min. At 37° C. The cells are washed rapidly with PBS before the coverslips are mounted and immediately photographed as described above.
After 24 hours, microtubules and vimentin intermediate filaments are visualized by indirect immunofluorescence and microfilaments are stained using TRITC-phalloidin. The morphological effects of each drug is examined. […]

[6] = system: A-10 cells; assay: Effects on taxol-stabilized microtubules; assay type: cell-based, rat
Experimental: as §1
A-10 cells are treated for 3 hours with 0 or 10 μM taxol before the addition of PBS, 100 nM vinbiastine or 10 nM cryptophycin compound. After 24 hours, microtubule organization is examined by immunofluorescence as described above. […] Similarly, microtubules pretreated with taxol are observed with cryptophycin treatment.

[7] = system: SKVLB1 cells; assay: Toxicity toward SKVLB1 cells (growth inhibition); assay type: cell-based; conditions: Homo sapiens, inhibition of proliferation, P-glycoprotein over expressing, vinblastine-resistant sub-line
[8] = system: A-10 cells; assay: Reversibility of microtubule depolymerization; assay type: cell-based, rat
Experimental: as §1
The cells are then washed and incubated in drug-free medium for periods of 1 hour or 24 hours. […] Cells are visualized for microtubule state after treatment with a cryptophycin compound of this invention at either 1 hour or 24 hours after removal of the cryptophycin compounds.

[9] = in vitro cytotoxicity, Gc3 tumor cell model, read-out: Gc3 IC50

For `COc1ccc(C[C@H]2NC(=O)/C=C/C[C@@H]([C@H](C)[C@@H](O)[C@@H](Cl)c3ccccc3)OC(=O)[C@H](CC(C)C)OC(=O)C(C)(C)CNC2=O)cc1Cl` [Compound 1, cryptophycin 55], the pIC50 ([1]; Homo sapiens, Colon carcinoma cell, in vitro cytotoxicity, 72 hours, MTT, read-out: GC3 IC50) was 10.19, the solubility ([2]; aqueous with cosolvent or surfactant or cyclodextrin, vehicle 1) was < 1 µg/mL and the solubility ([2]; aqueous with cosolvent or surfactant or cyclodextrin, vehicle 2) was 2.6 µg/mL (≈ 3.68 µM). The solubility ([2]; aqueous with cosolvent or surfactant or cyclodextrin, vehicle 3) was 311 µg/mL (≈ 441 µM), the solubility ([2]; aqueous with cosolvent or surfactant or cyclodextrin, vehicle 4) was 361 µg/mL (≈ 512 µM) and the solubility ([2]; pH 4, aqueous buffer, vehicle 5) was < 1 µg/mL.
In the case of `COc1ccc(C[C@H]2NC(=O)/C=C/C[C@@H]([C@H](C)[C@@H](OC(=O)Cc3ccccc3OP(=O)(O)O)[C@@H](Cl)c3ccccc3)OC(=O)[C@H](CC(C)C)OC(=O)C(C)(C)CNC2=O)cc1Cl` [Compound 6, Cryptophycin 55 (2′-Phosphatyl)phenylacetate di-Sodium Salt], the pIC50 ([1]; Homo sapiens, Colon carcinoma cell, 72 h, read-out: GC3 IC50) was 8.43.
With `COc1ccc(C[C@H]2NC(=O)/C=C/C[C@@H]([C@H](C)[C@@H](OC(=O)CN)[C@@H](Cl)c3ccccc3)OC(=O)[C@H](CC(C)C)OC(=O)C(C)(C)CNC2=O)cc1Cl` [Compound 12, Cryptophycin 55 Glycinate Hydrochloride Salt] the “course of aqueous solubility over the pH range studied” value ([3]; aqueous pH 4-8, room temperature, 6 hours) was “remained substantially steady”, the “stability in an aqueous environment” value ([3]; physiological pH range, over longer periods of time) was “better stability” and the “Comparative solubility, vehicle 2” value ([2]; Propylene Glycol 15 % v/v, Polyethylele Glycol 3000 20 % v/v, volume adjusted 0.05 M acetate buffer) was >2000 µg/mL. For the same compound, the “stability in formulation 6” value [4] was “acceptable stability”.
For `C=C1[C@@H](C)[C@H]2[C@H](Cc3ccccc3)NC(=O)[C@]23OC(=O)/C=C/[C@H](O)CCC[C@@H](C)C/C=C/[C@H]3[C@@H]1O` [Cytochalasin B, cytochalasin B], the effect on microfilaments ([5]; TRITC-phalloidin staining) was “complete depolymerization of microfilaments” and the “effect on distribution of microtubules or intermediate filaments” value ([5]; indirect immunofluorescence) was “did not affect”.
With `CC(=O)O[C@H]1C(=O)[C@@]2(C)[C@H]([C@H](OC(=O)c3ccccc3)[C@]3(O)C[C@H](OC(=O)[C@H](O)[C@@H](NC(=O)c4ccccc4)c4ccccc4)C(C)=C1C3(C)C)[C@]1(OC(C)=O)CO[C@@H]1C[C@@H]2O` [Taxol, taxol] the “microtubule organization in taxol-treated cells” value ([6]; 10 μM taxol, compared with control cells) was “extensively bundled” and the pIC50 [7] was 5.10.
In the case of `CC[C@]1(O)C[C@@H]2CN(CCc3c([nH]c4ccccc34)[C@@](C(=O)OC)(c3cc4c(cc3OC)N(C)[C@H]3[C@@](O)(C(=O)OC)[C@H](OC(C)=O)[C@]5(CC)C=CCN6CC[C@]43[C@@H]65)C2)C1` [Vinblastine, vinblastine], the “microtubule depolymerization after taxol pretreatment” value ([6]; 100 nM vinblastine after 3 hours pretreatment with 10 μM taxol) was “prevented microtubule depolymerization”, the microtubule depolymerization ([6]; 100 nM, 24 hours, non-pretreated cells) was “complete depolymerization of microtubules” and the “microtubule repolymerization 1 hour after removal of drug” value ([8]; 100 nM for 24 hr, washed, drug-free medium 1 hour) was “significant levels of microtubules”. The “microtubule repolymerization 24 hours after removal of drug” value ([8]; 100 nM for 24 hr, washed, drug-free medium 24 hours) was “complete morphological recovery”, the microtubule depolymerization ([8]; 100 nM, 24 hr) was “complete microtubule depolymerization” and the pIC50 [7] was 5.38.
With “Cryptophycin 55 (2′-phosphatyl)phenylacetate di-sodium Salt [7′]” the pIC50 [1, 9] was 8.43.
Work on “Cryptophycin 55 (D)-alaninate Hydrochloride Salt [30′]” yielded a pIC50 [1, 9] of 7.52.
Compound Cryptophycin 55 Acetate [3′] has a pIC50 [1, 9] of 7.08.
Work on “Cryptophycin 55 β-Alaninate Hydrochloride Salt [21′]” yielded a pIC50 [1, 9] of 7.68.
With “Cryptophycin 55 γ-Aminobutyrate Hydrochloride Salt [25′]” the pIC50 [1, 9] was 6.64.

From patent US6680311B1, “Cryptophycin compounds” (Eli Lilly and Company, priority 1996, dated 2004)
